A short description of data set [1]: Measurement of LogP values by HPLC on reversed phase columns (EEC directive 79/831 Annex V.A8). It counts as physicochemical. The note with it: for chromatographic logP: method [a]: LC-UV, acidic range, 0.1% formic acid in water and acetonitrile, compounds of formula (I-1), Table 1. As for the experimental part: Calibration was done with straight-chain alkan2-ones (with 3 to 16 carbon atoms) with known LogP values (measurement of LogP values using retention times with linear interpolation between successive alkanones). Lambda-max-values were determined using UV-spectra from 200 nm to 400 nm and the peak values of the chromatographic signals

Data set [2] has as its system Botrytis cinerea. Nature of the data set: In vivo preventive test on Botrytis cinerea (grey mould). The note with it: 500 ppm of active ingredient, preventive spray on gherkin or cabbage, evaluated 4 to 5 days after inoculation, read-out: efficacy. As for the experimental part:
The active ingredients were made soluble and homogenized in a mixture of Dimethyl sulfoxide/Acetone//Tween® 80 and then diluted in water to the desired concentration. The young plants of gherkin or cabbage were treated by spraying the active ingredient prepared as described above. Control plants were treated only with an aqueous solution of Acetone/Dimethyl sulfoxide/Tween® 80. After 24 hours, the plants were contaminated by spraying the leaves with an aqueous suspension of Botrytis cinerea spores.

The test system of data set [3] is Pyrenophora teres. Nature of the data set: In vivo preventive test on Pyrenophora teres (net blotch on barley). The following applies: 240 h, 500 ppm of active ingredient, preventive spray on barley, evaluated 10 days after inoculation, read-out: efficacy. As for the experimental part: The active ingredients were made soluble and homogenized in a mixture of Dimethyl sulfoxide/Acetone//Tween® 80 and then diluted in water to the desired concentration. The young plants of barley were treated by spraying the active ingredient prepared as described above. Control plants were treated only with an aqueous solution of Acetone/Dimethyl sulfoxide/Tween® 80. After 24 hours, the plants were contaminated by spraying the leaves with an aqueous suspension of Pyrenophora teres spores.

The subject of data set [4] is Sphaerotheca fuliginea. Nature of the data set: In vivo preventive test on Sphaerotheca fuliginea (powdery mildew on cucurbits). The note with it: Podosphaera fuliginea, 192 h; 500 ppm of active ingredient; preventive spray on gherkin; evaluated 8 days after inoculation; read-out: efficacy. As for the experimental part:
The active ingredients were made soluble and homogenized in a mixture of Dimethyl sulfoxide/Acetone//Tween® 80 and then diluted in water to the desired concentration. The young plants of gherkin were treated by spraying the active ingredient prepared as described above. Control plants were treated only with an aqueous solution of Acetone/Dimethyl sulfoxide/Tween® 80. After 24 hours, the plants were contaminated by spraying the leaves with an aqueous suspension of Sphaerotheca fuliginea spores.

Data set [5] relates to Colletotrichum lindemuthianum. In words: In vivo preventive test on Colletotrichum lindemuthianum (leaf spot on bean). The following applies: 168 h, 500 ppm of active ingredient, preventive spray on bean, evaluated 7 days after inoculation, read-out: efficacy. The method, then: The active ingredients were made soluble and homogenized in a mixture of Dimethyl sulfoxide/Acetone//Tween® 80 and then diluted in water to the desired concentration. The young plants of bean were treated by spraying the active ingredient prepared as described above. Control plants were treated only with an aqueous solution of Acetone/Dimethyl sulfoxide/Tween® 80. After 24 hours, the plants were contaminated by spraying the leaves with an aqueous suspension of Colletotrichum lindemuthianum spores.

Data set [6] relates to Alternaria alternata. Nature of the data set: Alternaria alternata in vitro cell test. In kind it is cell-based. The following applies: 120 h, 20 ppm of active ingredient, liquid culture, 5 days incubation, read-out: efficacy (inhibition of fungal growth). The method, then:
(§1) • Solvent: DMSO • Culture medium: 14.6 g anhydrous D-glucose (VWR), 7.1 g Mycological Peptone (Oxoid), 1.4 g granulated Yeast Extract (Merck), QSP 1 liter • Inoculum: spores suspension Fungicides were solubilized in DMSO and the solution used to prepare the required range of concentrations. […] A spore suspension of A. alternata was prepared and diluted to the desired spore density. Fungicides were evaluated for their ability to inhibit spore germination and mycelium growth in liquid culture assay. The compounds were added in the desired concentration to the culture medium with spores. After 5 days incubation, fungi-toxicity of compounds was determined by spectrometric measurement of mycelium growth. Inhibition of fungal growth was determined by comparing the absorbance values in wells containing the fungicides with the absorbance in control wells without fungicides.

Data set [7] relates to Pyricularia Oryzae. In words: microbe, parasite or virus in culture. In kind it is cell-based. The note with it: 120 h, read-out: efficacy (inhibition of fungal growth).
Data set [8] concerns Colletotrichum lindemuthianum. In words: Colletotrichum lindemuthianum in vitro cell test. The following applies: 144 h, 20 ppm of active ingredient, liquid culture, 6 days incubation, read-out: efficacy (inhibition of fungal growth). It counts as cell-based. As for the experimental part: as §1, with “of C. lindemuthianum” for “of A. alternata”, “inhibit spores” for “inhibit spore”, “After 6” for “After 5”

For data set [9], the system named is Septoria tritici. Nature of the data set: Septoria tritici in vitro cell test. It counts as cell-based. The following applies: Zymoseptoria tritici, 168 h; 20 ppm of active ingredient; liquid culture, 7 days incubation; read-out: efficacy (inhibition of fungal growth). The method, then:
• Solvent: DMSO • Culture medium: 1 g KH2PO4 (VWR), 1 g K2HPO4 (VWR), 0.5 g Urea (VWR), 3 g KNO3 (Prolabo), 10 g saccharose (VWR), 0.5 g MgSO4, 7H2O (Sigma), 0.07 g CaCl2, 2H2O (Prolabo), 0.2 mg MnSO4, H2O (Sigma), 0.6 mg CuSO4, 5H2O (Sigma), 7.9 mg ZnSO4, 7H2O (Sigma), 0.1 mg H3BO3 (Merck), 0.14 mg NaMoO4, 2H2O (Sigma), 2 mg thiamine (Sigma), 0.1 mg biotine (VWR), 4 mg FeSO4, 7H2O (Sigma), QSP 1 liter • Inoculum: spore suspension Fungicides were solubilized in DMSO and the solution used to prepare the required range of concentrations. […] A spore suspension of S. tritici was prepared and diluted to the desired spore density. Fungicides were evaluated for their ability to inhibit spore germination and mycelium growth in liquid culture assay. The compounds were added in the desired concentration to the culture medium with spores. […] Inhibition of fungal growth was determined by comparing the absorbance values in wells containing the fungicides with the absorbance in control wells without fungicides.

The subject of data set [10] is Alternaria brassicae. Nature of the data set: In vivo preventive test on Alternaria brassicae (leaf spot on radish or cabbage). The following applies: 144 h, 500 ppm of active ingredient, preventive spray on radish or cabbage, evaluated 6 days after inoculation, read-out: efficacy. The method, then:
The active ingredients were made soluble and homogenized in a mixture of Dimethyl sulfoxide/Acetone//Tween® 80 and then diluted in water to the desired concentration. The young plants of radish or cabbage were treated by spraying the active ingredient prepared as described above. Control plants were treated only with an aqueous solution of Acetone/Dimethyl sulfoxide/Tween® 80. After 24 hours, the plants were contaminated by spraying the leaves with an aqueous suspension of Alternaria brassicae spores.

Marks after values point to notes of the source that are not given here.

In general, chromatographic logP refers to lipophilicity estimated from chromatographic retention. For orientation: inhibition means the percentage by which the read-out fell short of the control. In turn, `Cc1cc(C)cc(CC2CON=C(c3cc(C)nnc3Oc3cccc(C)c3F)N2)c1` (racemic) [Compound I-008, (5RS)-5-(3,5-dimethylbenzyl)-3-[3-(2-fluoro-3-methylphenoxy)-6-methylpyridazin-4-yl]-5,6-dihydro-4H-1,2,4-oxadiazine] displayed a chromatographic logP in data set [1] of 3.85. Besides, the pest or weed control at 500 ppm in data set [2], in data set [3], in [4], in [5] and in data set [10] was 90 to 100% throughout. For the same compound, the inhibition at 20 ppm in data set [6], in data set [7], in data set [8] and in [9] was 90 to 100% each time.
For the compound `Cc1ccc(C)c(CC2CON=C(c3cc(C)nnc3Oc3cccc(C)c3F)N2)c1` (racemic) [Compound I-013, (5RS)-5-(2,5-dimethylbenzyl)-3-[3-(2-fluoro-3-methylphenoxy)-6-methylpyridazin-4-yl]-5,6-dihydro-4H-1,2,4-oxadiazine], the chromatographic logP in data set [1] is 3.69. Moreover, the pest or weed control at 500 ppm in data set [2] was 90 to 100%; in data set [3] it was 80 to 89%; in data set [4], 90 to 100%; in data set [5] it was 90 to 100%; in data set [10], 90 to 100%. The inhibition at 20 ppm was 90 to 100% in data set [6], 80 to 89% in data set [7], 90 to 100% in data set [8] and 90 to 100% in data set [9].
Take `C=C(OCC)c1cc(C2=NOCC(Cc3ccc(Cl)cc3Cl)N2)c(Oc2cccc(C3CC3)c2F)nn1` (racemic) [Compound I-020, (5RS)-3-[3-(3-cyclopropyl-2-fluorophenoxy)-6-(1-ethoxyvinyl)pyridazin-4-yl]-5-(2,4-dichlorobenzyl)-5,6-dihydro-4H-1,2,4-oxadiazine]: in data set [1], the chromatographic logP turned out to be 5.41. In addition, the pest or weed control at 500 ppm in [2], in data set [3], in data set [4], in data set [5] and in data set [10] was 90 to 100% each time. Besides, the inhibition at 20 ppm in data set [6], in [7], in data set [8] and in data set [9] was 90 to 100% throughout.
Consider `Cc1cc(C2=NOCC(Cc3ccc(Cl)cc3Cl)N2)c(Oc2cccc(C3(Cl)CC3)c2)nn1` (racemic) [Compound I-022, (5RS)-3-{3-[3-(1-chlorocyclopropyl)phenoxy]-6-methylpyridazin-4-yl}-5-(2,4-dichlorobenzyl)-5,6-dihydro-4H-1,2,4-oxadiazine], for which the chromatographic logP in [1] was determined as 4.51. Also, the pest or weed control at 500 ppm in data set [2], in data set [3], in data set [4], in [5] and in [10] was 90 to 100% in each case. The inhibition at 20 ppm was 90 to 100% in [6] and 70 to 79% in [7].
Regarding `Cc1cc(C)cc(CC(CCl)NC(=O)c2cc(C)nnc2Oc2cccc(Cl)c2F)c1` (stereo not drawn) [Compound 14-06], the LogP in data set [1] is 4.59^[a].
The same measure, in the same setting: the value for `Cc1ccc(C)c(CC(CCl)NC(=O)c2cc(C)nnc2Oc2cccc(Cl)c2F)c1` (stereo not drawn) [Compound 14-07] was 4.42^[a]; that for `Cc1ccc(C)c(CC(CCl)NC(=O)c2cc(C)nnc2Oc2cccc(C)c2F)c1` (stereo not drawn) [Compound 14-08] was 4.37^[a]; that for `Cc1ccc(C)c(CC(CCl)NC(=O)c2cc(C)nnc2Oc2cccc(Cl)c2)c1` (stereo not drawn) [Compound 14-09] was 4.37^[a].
Regarding `Cc1ccc(CC(CCl)NC(=O)c2cc(C)nnc2Oc2cccc(C3(F)CC3)c2)c(C)c1` (stereo not drawn) [Compound 14-10], in data set [1], the LogP was 4.58^[a].
Still for that read-out and setting: with `Cc1ccc(CC(CCl)NC(=O)c2cc(Cl)nnc2Oc2cccc(Cl)c2)c(Cl)c1` (stereo not drawn) [Compound 14-12] the figure was 4.97^[a]; with `Cc1ccc(CC(CCl)NC(=NO)c2cc(C)nnc2Oc2cccc(Cl)c2)c(Br)c1` (stereo not drawn) [Compound 15-01], 3.84^[a].
On to `Cc1ccc(CC(CCl)NC(=NO)c2cc(C)nnc2Oc2cccc(C)c2F)c(Cl)c1` (stereo not drawn) [Compound 15-02], for which the LogP in data set [1] is 3.75^[a].
The same measure, in the same setting: the value for `Cc1cc(C)cc(CC(CCl)NC(=NO)c2cc(C)nnc2Oc2cccc(Cl)c2F)c1` (stereo not drawn) [Compound 15-04] was 3.98^[a].
Same read-out and setting: with `Cc1ccc(C)c(CC(CCl)NC(=NO)c2cc(C)nnc2Oc2cccc(Cl)c2F)c1` (stereo not drawn) [Compound 15-05] the figure was 3.84^[a]; with `Cc1ccc(C)c(CC(CCl)NC(=NO)c2cc(C)nnc2Oc2cccc(C)c2F)c1` (stereo not drawn) [Compound 15-06], 3.74^[a].
On the same count and under the same terms, the value for `Cc1ccc(C)c(CC(CCl)NC(=NO)c2cc(C)nnc2Oc2cccc(Cl)c2)c1` (stereo not drawn) [Compound 15-07] was 3.74^[a].
On to `Cc1ccc(C[C@H]2CON=C(c3cc(C(Cl)Cl)nnc3Oc3cccc(C4CC4)c3F)N2)c(C)c1` [Compound I-021, (5S)-3-[3-(3-cyclopropyl-2-fluorophenoxy)-6-(dichloromethyl)pyridazin-4-yl]-5-(2,4-dimethylbenzyl)-5,6-dihydro-4H-1,2,4-oxadiazine], for which the chromatographic logP in data set [1] turned out to be 5.11.
